Usually EC50 stands for the concentration needed to bring the measured effect to its halfway point.

Data set [1] can be described thus: Stability investigation by NMR spectroscopy (hydrolysis in buffer/media). It is filed as physicochemical. Particulars: for Hydrolysis/Stability pH 7.5: 10 mM Hepes or 10 mM Tris, pH 7.4; for Hydrolysis/Stability pH 7.5 / Hydrolysis/Stability pH 5.5: 107 mM NaCl; for Hydrolysis/Stability pH 5.5: 10 mM Mes; for long-term stability in aqueous solution: slightly acidic and neutral pH, 24 h and longer, NMR. The text has this: POMs of the globular Keggin and planar Anderson archetype and with varying charge status from -3 to -8 (Fig. 1) were selected. To offset the known [XW12O40]^n- (X = hetero-ion) hydrolysis propensity in aqueous solution, most pronounced at neutral pH, more highly charged mixed-metal derivatives (Fig. 1,lefthand side) were also included. The latter are obtained by hydrolytic removal of one W=O^4+ unit from the Keggin structure and the subsequent incorporation of an addenda metal to fill the cavity of the monolacunary intermediate. In detail, the following POM anions were studied (as acid or sodium, potassium, or tetraalkylammonium salts), see Fig. 1: [α-P^VW^VI12O40]^3- ([PW12]^3-), [α-Si^IVW^VI12O40]^4- ([SiW12]^4-), [α-Al^IIIW^VI12O40]^5- ([AlW12]^5-), [α-P^VV^VW^VI11O40]^4- ([PVW11]^4-), [α-Si^IVMo^VIW^VI11O40]^4- ([SiMoW11]^4-), [α- HAl^IIIGe^IVW^VI11O39(H2O)]^5- ([GeAlW11]^5-), [{α-P^VW^VI11O39Zr^IV(µ-OH)(H2O)}2]^8- ([(PZrW11)2]^8-), and [Al^III(OH)6Mo^VI6O18]^3- ([AlMo6]^3-). First, their long-term (24 h and longer) stability in aqueous solution (slightly acidic and neutral) was investigated by applying the active NMR nuclei in their composition (see).

Data set [2] is described as follows: Transport experiments in CF-loaded zwitterionic EYPC vesicles (CF fluorescence, Hill analysis). The note with it: for membrane transport activity: pH 5.5 and 7.4, heptaArg, protamine, polyArg (for [AlMo6]^3- heptaArg and protamine only); for behaviour towards liposomes at strongly acidic pH: pH 1.2. The arrangement: key to membrane transport activity: - - -: No detectable activity at pH 5.5 and 7.4. It is filed as biochemical. As to the method: The dry film was rehydrated with 1 mL buffer (50 mM CF, 10 mM Hepes, pH 7.4 or 50 mM CF, 10 mM Tris, pH 7.4) for 30 min at room temperature, subjected to freeze-thaw cycles (7 times) and extrusions (15 times) through a polycarbonate membrane (pore size 100 nm). Extravesicular components were removed by size exclusion chromatography (NAP-25 column Sephadex G-25 DNA grade) with 10 mM Hepes, 107 mM NaCl, pH 7.4 or 10 mM Hepes, 107 mM NaCl, pH 7.4. Phospholipid concentration was calculated by the Stewart assay. […]
Vesicles stock solutions (5-10 µL) were diluted with the corresponding buffer in a disposable plastic cuvette and gently stirred (total volume 2000 µL, final lipid concentration 13 µM). […] Fluorescence intensities were normalized to fractional emission as: I(t) = (It −I0)/(I∞ −I0) [formula]
Where I0 = It before POM addition and […] = I∞ after lysis. For Hill analysis, It before lysis was defined as transport activity, Y, and plotted against POM concentration, c, and fitted to the Hill equation (2), to afford the activity in absence of POM, Y0, the maximal activity, Ymax, the concentration needed to achieve 50 % of maximal activity, EC50, and the Hill coefficient, n. Y = Y0 + (Ymax −Y0)/(1 + (((EC50)/(c)))^n) [formula]
In the transport measurements, where different carriers (POMs) are tested with the same cargo, the activator efficiency (E) is determined by their capacity to transport the impermeable cargo to the intravesicular region and is characterized by Ymax, its maximal activity, and EC50, the effective activator concentration. An ideal carrier reaches high Ymax at low EC50. To count both factors, the activator efficiency is defined as: E = Ymax (pEC50)/(f) [formula] were pEC50 is the negative logarithm of the EC50, and fa scaling factor, which was set to 20.6 to calibrate the highest (previously known) activation efficiency, E, as 10.
The capability of POMs to act as membrane carriers was explored first in large unilamellar vesicles (LUVs), loaded with carboxyfluorescein (CF). We selected […] representative cationic peptides, heptaarginine (heptaArg), heptalysine (heptaLys), protamine, and polyarginine (polyArg), as test cargos. Inside the LUVs, the CF dye was encapsulated at self-quenching concentrations. With a suitable carrier, heptaArg can be taken up into the vesicles, bind with entrapped CF, and shuttle back to the exterior, spreading the previously quenched CF, and thereby restoring its fluorescence (Fig. 3). In the time-resolved fluorescence experiments, to test whether a POM acts as molecular carrier, the CF emission was continuously monitored during the addition of the inorganic carrier (t = 60 s) and after injection the impermeable heptaArg (t = 120 s). At the end of the experiment (t = 600 s), the surfactant Triton X-100 was added to release all the entrapped CF and allow normalization of the intensity data (Fig. 4a).

Data set [3] is described as follows: HPTS/DPX assay of membrane transport in EYPC vesicles. Format: biochemical. Particulars: Measured by HPTS/DPX assay.
The mark [4] stands for this setting: EYPC vesicles, 0.1 µM polyArg, neutral pH 7.4.
The mark [5] stands for this setting: EYPC vesicles, 0.1 µM polyArg, neutral pH 7.4, read-out: PolyArg EC50.
Where [6] appears, read: EYPC vesicles, 1 µM protamine, neutral pH 7.4.
[7] abbreviates: Tris-HCl pH 7.5 freshly prepared.

With `O=C(O)CCCc1ccc2ccc3cccc4ccc1c2c34` [PyBu^-, pyrenebutyrate, reference compound], in data set [1], the “Hydrolysis/Stability pH 7.5” value was “stable” and the “Hydrolysis/Stability pH 5.5” value was “stable”. In addition, in data set [2] (setting [4]), the “PolyArg E (activation efficiency)” value was found to be 8.5 and the “PolyArg Ymax” value came to 91%. Moreover, the concentration for a half-maximal effect (EC50) in data set [2] (setting [5]) worked out at 12 µM. Further, in data set [2] (setting [6]), the “Protamine E (activation efficiency)” value is given as 5.3 and the “Protamine Ymax” value amounted to 77%. For the same molecule, the half-maximal effective concentration (EC50) in data set [2] (EYPC vesicles, 1 µM protamine, neutral pH 7.4, read-out: Protamine EC50) worked out at 39 µM. In addition, in data set [2] (EYPC vesicles, 10 µM heptaArg, neutral pH 7.4), the “HeptaArg Ymax” value was determined as 100%. In data set [2] (EYPC vesicles, 10 µM heptaArg, neutral pH 7.4, E = Ymax(pEC50/f), f = 20.6), the “HeptaArg E (activation efficiency)” value was determined as 4.8. For the same molecule, the concentration giving a half-maximal response (EC50) in data set [2] (EYPC vesicles, 10 µM heptaArg, neutral pH 7.4, read-out: HeptaArg EC50) turned out to be 100 µM. Also, in data set [2] (heptaarginine 10 µM, Fig. 12), the “efficacy when the sequence of carrier-cargo addition was reversed” value is recorded as “significantly reduces its activity”.
Turning to “(C4H12N)4[α-HAl^IIIGe^IVW^VI11O39(H2O)]·11H2O [[GeAlW11]^5-]”, in data set [1], the “Hydrolysis/Stability pH 7.5” value is given as “stable” and the “long-term stability in aqueous solution” value is listed as “stable at neutral pH”. Moreover, the “POM anions with % for parent (active) anion based on signals integration” value (from here on “POM anions with % for parent”) in data set [1] (Tris-HCl pH 7.5 after 1 day) is “[HAl^IIIGe^IVW^VI11O39(H2O)] ^4-”. The “POM anions with % for parent” value in data set [1] (setting [7]) was “[HAl^IIIGe^IVW^VI11O39(H2O)] ^4-”. Also, the “membrane transport activity” value in data set [2] (EYPC vesicles) was “- - -[j]”.
Take “(Et2NH2)8[{α-P^VW^VI11O39Zr^IV(µ-OH)(H2O)}2]·7H2O [[(PZrW11)2]^8-]”: the “Hydrolysis/Stability pH 7.5” value in data set [1] is reported as “stable”. Moreover, the “POM anions with % for parent” value in data set [1] (Hepes pH 7.5 after 1 day) is “[{α-PW11O39Zr(µ-OH)(H2O)}2]^8-·(99 %) and [Zr(α-PW11O39)2]^10-”; in data set [1] (Hepes pH 7.5 freshly prepared), “[{α-PW11O39Zr(µ-OH)(H2O)}2]^8-·(99 %) and [Zr(α-PW11O39)2]^10-”. Also, the “membrane transport activity” value in data set [2] (EYPC vesicles) is “- - -[j]”.
For the molecule B12Br12^2-, in data set [1], the “Hydrolysis/Stability pH 7.5” value is listed as “stable” and the “Hydrolysis/Stability pH 5.5” value is “stable”. Moreover, in data set [3] (0.1 µM polyArg, pH 7.4), the “PolyArg E (activation efficiency)” value is listed as 12 and the “PolyArg Ymax” value worked out at 94%. Moreover, the EC50 in data set [3] (0.1 µM polyArg, pH 7.4, read-out: PolyArg EC50) was 2.6 µM. Moreover, in data set [3] (1 µM protamine, pH 7.4), the “Protamine E (activation efficiency)” value is 8.0 and the “Protamine Ymax” value was determined as 84%. The concentration for a half-maximal effect (EC50) in data set [3] (1 µM protamine, pH 7.4, read-out: Protamine EC50) was found to be 11 µM. Further, in data set [3] (10 µM heptaArg, pH 7.4), the “HeptaArg E (activation efficiency)” value was determined as 6.1 and the “HeptaArg Ymax” value was 95%. Besides, the concentration for a half-maximal effect (EC50) in data set [3] (10 µM heptaArg, pH 7.4, read-out: HeptaArg EC50) came out at 48 µM.
K4[α-Si^IVW^VI12O40]·14H2O [[SiW12]^4-]: in data set [1], the “Hydrolysis/Stability pH 7.5” value is “to [Si^VW^VI8O39]^8-”, the “hydrolysis above pH 4.5” value was “rapid hydrolysis” and the “long-term stability in aqueous solution” value is “fully hydrolyzed”. The “POM anions with % for parent” value in data set [1] (Hepes pH 7.5 (time not given)) was “[Si^IVW^VI12O40]^4- and [Si^IVW^VInO39]^8- (high noise to signal ratio, correct integration of peak cannot be performed; but clearly [Si^IVW^VI11O39]^8- is predominant)”. Moreover, in data set [2] (EYPC vesicles), the “membrane transport activity” value is “- - -[jilt]”. Moreover, the “behaviour towards liposomes at strongly acidic pH” value in data set [2] is recorded as “showed the desired cargo transport at acidic pH, without membrane disruption”.
Regarding “Na3[Al^III(OH)6Mo^VI6O18]·2H2O [[AlMo6]^3-]”, in data set [1], the “Hydrolysis/Stability pH 7.5” value is on record as “stable”. Besides, the “POM anions with % for parent” value in data set [1] (Hepes pH 7.5 after 1 day) is “[Al^III(OH)6MO^VI6O18]^3-”. Also, in data set [1] (Hepes pH 7.5 freshly prepared), the “POM anions with % for parent” value is “[Al^III(OH)6MO^VI6O18]^3-”. In data set [2] (setting [4]), the “PolyArg E (activation efficiency)” value is recorded as 3.1 and the “PolyArg Ymax” value turned out to be 33%. Also, the EC50 in data set [2] (setting [5]) is 11 µM. In addition, the “membrane transport activity” value in data set [2] (EYPC vesicles) is “- - -[j]”. In addition, in data set [2] (LUVs loaded with CF, added cargo), the “cargo transport in CF-loaded vesicles (qualitative)” value is reported as “incipient transport activity, but only for polyarginine as cargo”.
For the molecule Na3[α-P^VW^VI12O40]·nH2O [[PW12]^3-], in data set [1], the “Hydrolysis/Stability pH 5.5” value is “to [P^VW^VI11O39]^7-”, the “hydrolysis above pH 4.5” value is recorded as “rapid hydrolysis” and the “long-term stability in aqueous solution” value is given as “fully hydrolyzed”. Also, in data set [1] (Mes pH 5.5 after 1 day), the “% of hydrolysis product [P^VW^VI11O39]^7- based on signals integration” value came out at 61% and the “POM anions with % for parent” value was 5%. Besides, in data set [1] (Mes pH 5.5 freshly prepared), the “% of hydrolysis product [P^VW^VI11O39]^7- based on signals integration” value is listed as 61% and the “POM anions with % for parent” value stood at 4%. The “POM anions with % for parent” value in data set [1] (NaOAc/HOAc pH 4 after 1 day) is “[P^VW^VI12O40]^3- (28 %) and intermediate anions”. In data set [1] (NaOAc/HOAc pH 4 freshly prepared), the “POM anions with % for parent” value is “[P^VW^VI12O40]^3- (30 %) and intermediate anions”. For the same molecule, in data set [2] (EYPC vesicles), the “membrane transport activity” value is “- - -[j,k]”. Besides, the “behaviour towards liposomes at strongly acidic pH” value in data set [2] was “strong interaction and membrane disruption”.
“Na5[α-Al^IIIW^VI12O40]·12H2O [[AlW12]^5-]”: in data set [1], the “Hydrolysis/Stability pH 7.5” value was “stable” and the “long-term stability in aqueous solution” value is “stable at neutral pH”. In addition, the “POM anions with % for parent” value in data set [1] (Tris-HCl pH 7.5 after 1 day) is “[Al^IIIW^VI12O40]^5-”. For the same molecule, the “POM anions with % for parent” value in data set [1] (setting [7]) is “[Al^IIIW^VI12O40]^5-”. Besides, the “membrane transport activity” value in data set [2] (EYPC vesicles) is “- - -[j]”.
